In the NIST ThermoML archive (doi:10.1021/je5003779):
Numbers after ± are expanded uncertainties.

What was measured:
[1] = refractive index (other wavelength) (dimensionless); details: 101.3 kPa, Liquid, Wavelength=632.8 nm, Standard Abbe refractometry
[2] = refractive index (other wavelength) (dimensionless); xn = mol fraction of the nth substance listed; details: 296.27 K, 101 kPa, Liquid, Wavelength=632.8 nm, Standard Abbe refractometry
[3] = heat capacity at constant pressure per volume; xn = mol fraction of the nth substance listed; details: 101 kPa, Liquid, Differential Scanning Calorimeter, x1 = 0.133

## CCCO [propan-1-ol]
[1]; 284.73 K
  refractive index: 1.387 ± 0.0004
[1]; 286.91 K
  refractive index: 1.3861 ± 0.0004
[1]; 288.21 K
  refractive index: 1.3856 ± 0.0004
[1]; 289.24 K
  refractive index: 1.3851 ± 0.0004
[1]; 290.26 K
  refractive index: 1.3847 ± 0.0004
[1]; 291.26 K
  refractive index: 1.3843 ± 0.0004
[1]; 292.59 K
  refractive index: 1.3837 ± 0.0004
[1]; 293.69 K
  refractive index: 1.3833 ± 0.0004
[1]; 296.27 K
  refractive index: 1.3823 ± 0.0004

## CCCO [propan-1-ol] + CCn1cc[n+](C)c1.O=S(=O)([N-]S(=O)(=O)C(F)(F)F)C(F)(F)F
[2]; x2 = 0
  refractive index: 1.3823 ± 0.0004

## CCn1cc[n+](C)c1.O=S(=O)([N-]S(=O)(=O)C(F)(F)F)C(F)(F)F + CCCO
[3]; 295 K
  heat capacity: 2448000 ± 120000 J/K/m3
[3]; 296 K
  heat capacity: 2164000 ± 110000 J/K/m3
[3]; 297 K
  heat capacity: 2118000 ± 110000 J/K/m3
[3]; 298 K
  heat capacity: 2122000 ± 110000 J/K/m3
[3]; 299 K
  heat capacity: 2105000 ± 100000 J/K/m3
[3]; 300 K
  heat capacity: 2103000 ± 100000 J/K/m3
[3]; 301 K
  heat capacity: 2101000 ± 100000 J/K/m3
[3]; 302 K
  heat capacity: 2082000 ± 100000 J/K/m3
[3]; 303 K
  heat capacity: 2087000 ± 100000 J/K/m3
[3]; 304.01 K
  heat capacity: 2092000 ± 100000 J/K/m3
[3]; 305 K
  heat capacity: 2090000 ± 100000 J/K/m3
[3]; 306 K
  heat capacity: 2090000 ± 100000 J/K/m3
[3]; 307 K
  heat capacity: 2094000 ± 100000 J/K/m3
[3]; 308 K
  heat capacity: 2095000 ± 100000 J/K/m3
[3]; 309 K
  heat capacity: 2098000 ± 100000 J/K/m3
[3]; 310 K
  heat capacity: 2097000 ± 100000 J/K/m3
[3]; 311 K
  heat capacity: 2098000 ± 100000 J/K/m3
[3]; 312 K
  heat capacity: 2102000 ± 100000 J/K/m3
[3]; 313 K
  heat capacity: 2103000 ± 100000 J/K/m3
[3]; 314 K
  heat capacity: 2103000 ± 100000 J/K/m3
[3]; 315 K
  heat capacity: 2108000 ± 100000 J/K/m3
[3]; 316 K
  heat capacity: 2108000 ± 100000 J/K/m3
[3]; 317 K
  heat capacity: 2111000 ± 110000 J/K/m3
[3]; 318 K
  heat capacity: 2113000 ± 110000 J/K/m3
[3]; 319 K
  heat capacity: 2114000 ± 110000 J/K/m3
[3]; 320 K
  heat capacity: 2117000 ± 110000 J/K/m3
[3]; 321 K
  heat capacity: 2117000 ± 110000 J/K/m3
[3]; 322 K
  heat capacity: 2121000 ± 110000 J/K/m3
[3]; 323 K
  heat capacity: 2124000 ± 110000 J/K/m3
[3]; 324 K
  heat capacity: 2125000 ± 110000 J/K/m3
[3]; 325 K
  heat capacity: 2124000 ± 110000 J/K/m3
[3]; 326 K
  heat capacity: 2129000 ± 110000 J/K/m3
[3]; 327 K
  heat capacity: 2131000 ± 110000 J/K/m3
[3]; 328 K
  heat capacity: 2133000 ± 110000 J/K/m3
[3]; 329.01 K
  heat capacity: 2135000 ± 110000 J/K/m3
[3]; 330 K
  heat capacity: 2134000 ± 110000 J/K/m3
[3]; 331 K
  heat capacity: 2139000 ± 110000 J/K/m3
[2]; x1 = 0.021
  refractive index: 1.3854 ± 0.0004
[2]; x1 = 0.056
  refractive index: 1.3896 ± 0.0004
[2]; x1 = 0.097
  refractive index: 1.3935 ± 0.0004
[2]; x1 = 0.142
  refractive index: 1.3971 ± 0.0004
[2]; x1 = 0.149
  refractive index: 1.3977 ± 0.0004
[2]; x1 = 0.192
  refractive index: 1.4006 ± 0.0004
[2]; x1 = 0.243
  refractive index: 1.4036 ± 0.0004
[2]; x1 = 0.306
  refractive index: 1.4064 ± 0.0004
[2]; x1 = 0.397
  refractive index: 1.4099 ± 0.0004
[2]; x1 = 0.502
  refractive index: 1.4131 ± 0.0004
[2]; x1 = 0.699
  refractive index: 1.4174 ± 0.0004
[2]; x1 = 0.855
  refractive index: 1.4199 ± 0.0004
[2]; x1 = 1
  refractive index: 1.4222 ± 0.0004

## CCn1cc[n+](C)c1.O=S(=O)([N-]S(=O)(=O)C(F)(F)F)C(F)(F)F
[1]; 285.03 K
  refractive index: 1.4252 ± 0.0004
[1]; 287.17 K
  refractive index: 1.4246 ± 0.0004
[1]; 288.97 K
  refractive index: 1.4242 ± 0.0004
[1]; 290.28 K
  refractive index: 1.4238 ± 0.0004
[1]; 291.11 K
  refractive index: 1.4236 ± 0.0004
[1]; 292.19 K
  refractive index: 1.4233 ± 0.0004
[1]; 293.16 K
  refractive index: 1.423 ± 0.0004
[1]; 294.21 K
  refractive index: 1.4227 ± 0.0004
[1]; 295.18 K
  refractive index: 1.4225 ± 0.0004
[1]; 297.26 K
  refractive index: 1.4219 ± 0.0004
